Consider 26 molecules from patent US7312219B2, “Heteroaromatic inhibitors of fructose 1,6-bisphosphatase” (Metabasis Therapeutics, Inc., priority 1998, dated 2007).

Where a name gives a salt, the structure may show the parent alone. Read-outs that look alike come from different tables or passages of the source.

The nature of data set [1]: Estimation of the Oral Bioavailability of Phosphonic Acids and their Prodrugs. In kind it is in vivo, rat. The conditions noted are these: fasted rats, oral 10–50 mg/kg, 24 h urinary recovery of phosphonic acid, oral vs intravenous. How it is done:
Phosphonic acids were dissolved in water, and the solution adjusted to neutrality with sodium hydroxide. Prodrugs were dissolved in 10% ethanol/90% polyethlene glycol (mw 400). Compound was administered by oral gavage to 18-hour fasted Sprague-Dawley rats (220–250 g) at doses ranging from 10–50 mg/kg. The rats were subsequently placed in metabolic cages and urine was collected for 24 hours. The quantity of phosphonic acid excreted into urine was determined by HPLC analysis as described in Example G. In a separate study, urinary recovery was determined following intravenous (tail vein) administration of compound (in the case of the prodrugs, the appropriate parent phosphonic acid was administered i.v.).

In another data set the test system is Fasted Rats. Nature of the data set: Blood Glucose Lowering Following Intravenous Administration to Fasted Rats. In kind it is in vivo, rat. The conditions noted are these: 18 h fasted Sprague Dawley rats, 1 hour, relative to saline-treated controls. On the procedure:
Inhibitors were disolved in water and the solution adjusted to neutrality with NaOH. Blood samples were obtained from the tail vein of conscious animals just prior to injection and after 1 hour. Blood glucose was measured using a HemoCue Inc. glucose analyzer according to the instructions of the manufacturer.

Data set [2] can be described thus: Analysis of Drug Levels and Liver Accumulation in Rats. Type of data set: in vivo, rat. The following applies: fasted rats, 10 mgs/kg i.v., one hour post injection; for concentration at 1 h: Sprague-Dawley, rat, iv, read-out: Plasma Conc.; for Plasma Conc. / concentration at 1 h: plasma. How it is done: The compound was dissolved in water and the solution adjusted to neutrality with NaOH. One hour post injection rats were anesthetized with halothane and a liver biopsy (approx. 1 g) was taken as well as a blood sample (2 ml) from the posterior vena cava. A heparin flushed syringe and needle were used for blood collection. The liver sample was immediately homogenized in ice-cold 10% perchloric acid (3 ml), centrifuged, and the supernatant neutralized with ⅓rd volume of 3 M KOH/3 M KHCO3. […] Plasma was prepared from the blood sample by centrifugation and extracted by addition of methanol to 60% (v/v). The methanolic extract was clarified by centrifugation and filtration and then analyzed by HPLC as described above.

The next data set relates to Fasted Rat. Put plainly: Glucose Lowering Following Oral Administration to the Fasted Rat. Type of data set: in vivo. The following applies: oral gavage, 18-hour fasted rats, relative to saline controls. On the procedure:
Compounds were administered by oral gavage to 18-hour fasted, Sprague Dawley rats (250–300 g, n =3/4/group). Phosphonic acids were prepared in deionized water, and the solution adjusted to neutrality with solidum hydroxide. Prodrugs were dissolved in polyethylene glycol (mw 400). […] The table below indicates the maximum glucose lowering achieved relative to control animals dosed with saline.

In data set [3] the test system is Gluconeogenesis in Rat Hepatocytes. Put plainly: Inhibition of Gluconeogenesis in Rat Hepatocytes. Type of data set: cell-based. The following applies: 10 mM lactate, 1 mM pyruvate, 1 hour incubation, read-out: IC50 Glucose Production. How it is done:
Hepatocytes were prepared from overnight fasted Sprague-Dawley rats (250–300 g) according to the procedure of Berry and Friend (Berry, M. N., Friend, D. S., 1969, J. Cell. Biol. 43, 506–520) as modified by Groen (Groen, A. K., Sips, H. J., Vervoorn, R. C., Tager, J. M. , 1982, Eur. J. Biochem. 122, 87–93). Hepatocytes (75 mg wet weight/ml) were incubated in 1 ml Krebs-bicarbonate buffer containing 10 mM Lactate, 1 mM pyruvate, 1 mg/ml BSA, and test compound concentrations from 1 to 500 μM. Incubations were carried out in a 95% oxygen, 5% carbon dioxide atmosphere in closed, 50-ml Falcon tubes submerged in a rapidly shaking water bath (37° C.). After 1 hour, an aliquot (0.25 ml) was removed, transferred to an Eppendorf tube and centrifuged. 50 μl of supernatant was then assayed for glucose content using a Sigma Glucose Oxidase kit as per the manufacturer's instructions.

Data set [4] in a line: Oral Absorption Determinations of Prodrugs in the Rat. The following applies: normal fed rats.
Where [5] appears, read: Rattus norvegicus, iv, 10 mg/kg i.v.

For “2-Methyl-5-isobutyl-4-{2-[5-bis(thiobenzoylmethyl)phosphono]furanyl}thiazole [Compound 19.9]”, the “% Oral bioavailability” value in data set [1] was 18.5%.

Turning to `Cc1nc(-c2ccc(P(=O)(O)O)o2)c(CC(C)C)s1` [Compound 3.2, 2-Methyl-5-isobutyl4-[2-(5-phosphono)furanyl]thiazole], in the data set with Fasted Rats (Rattus norvegicus, iv, 30 mg/kg i.v.), the inhibition in vivo (as a rule, the relative decrease from the control value, in per cent) at 30 mg/kg was found to be 55%.

`CCc1sc(N)nc1-c1ccc(P(=O)(O)O)o1` [Compound 3.21, 2-Amino-5-ethyl-4-[2-(5-phosphono)furanyl]thiazole]: in data set [2], the “Plasma Conc.” value is 25 ± 1 µM.

`CCOC(=O)c1sc(N)nc1-c1ccc(P(=O)(O)O)o1` [Compound 3.25, 2-Amino-5-ethoxycarbonyl-4-[2-(5-phosphono)furanyl]thiazole]: the inhibition in vivo at 10 mg/kg in the data set on Fasted Rats (setting [5]) turned out to be 76%.

`Nc1nc(-c2ccc(P(=O)(O)O)o2)c(C2CC2)s1` [Compound 3.27, 2-Amino-5-cyclopropyl-4-[2-(5-phosphono)furanyl]thiazole]: in the data set with Fasted Rat (dose 60 mg/kg, time point 3 h), the “% Glucose Lowering (maximum)” value was determined as 61%. Further, the “% Oral bioavailability” value in data set [1] is 32%.

In the data set with Fasted Rats (setting [5]), `CCCSc1sc(N)nc1-c1ccc(P(=O)(O)O)o1` [Compound 3.58, 2-Amino-5-propylthio-4-[2-(5-phosphono)furanyl]thiazole hydrobromide] registered an inhibition in vivo at 10 mg/kg of 82%. In addition, the IC50 (in general, the concentration needed to halve the response being measured) in data set [3] (Hepatocyte) amounted to 1.2 µM.

`CSc1[se]c(N)nc1-c1ccc(P(=O)(O)O)o1` [Compound 3.71, 2-Amino-5-methylthio-4-[2-(5-phosphono)furanyl]selenazole]: in the data set on Fasted Rats (10 mg/kg i.v.), the “i.v. Glucose Lowering, %” value is listed as 72%.

Regarding `CC(C)Cc1sc(Br)nc1-c1ccc(P(=O)(O)O)o1` [Compound 5.1, 2-bromo-5-isobutyl-4-[2-(5-phosphono)furanyl]thiazole], in data set [2], the “Liver Conc.” value came to 6.7 ± 0.7 nmol/g and the “Plasma Conc.” value turned out to be 100 ± 5.7 µM.

In the data set on Fasted Rats (setting [5]), `Nc1nc(-c2ccc(P(=O)(O)O)o2)c(-c2cccs2)s1` [Compound 6.3] had an inhibition in vivo at 10 mg/kg of 24%.

For the molecule `CCCc1oc(N)nc1-c1ccc(P(=O)(O)O)o1` [Compound 10.2, 2-Amino-5-propyl-4-[2-(5-phosphono)furanyl]oxazole], the concentration at 1 h in data set [2] turned out to be 22 ± 1.5 µM. Moreover, the “% Glucose Lowering (maximum)” value in the data set on Fasted Rat (dose 90 mg/kg, time point 3 h) was 36%. Moreover, the bioavailability – broadly, the share of a dose that reaches the circulation, judged against a reference dose that is usually intravenous – in data set [1] (Sprague-Dawley, rat, urine) was 22%.

In the data set on Fasted Rats (setting [5]), `CCCSc1oc(N)nc1-c1ccc(P(=O)(O)O)o1` [Compound 10.43, 2-Amino-5-propylthio-4-[2-(5-phosphono)furanyl]oxazole] returned an inhibition in vivo at 10 mg/kg of 61%.

As for `Nc1ccc(C2CC2)c(-c2ccc(P(=O)(O)O)o2)n1` [Compound 15.20, 2-Amino-5-cyclopropyl-6-[2-(5-phosphono)furanyl]pyridine], in data set [2], the concentration at 1 h is 66.3 ± 3.9 µM and the “Liver Conc.” value came out at 13.1 ± 2.3 nmol/g. For the same molecule, in the data set on Fasted Rats (setting [5]), the inhibition in vivo at 10 mg/kg is 24%.

On to `Nc1nc(C(=O)OCP(=O)(O)O)c(Br)s1` [Compound 18.2, 2-amino-5-bromo-4-phosphonomethoxycarbonylthiazole], for which, in the data set on Fasted Rats (setting [5]), testing at 10 mg/kg gave an inhibition in vivo of 80%.

In the data set on Fasted Rats (setting [5]), `CCc1sc(N)nc1C(=O)OCP(=O)(O)O` [Compound 18.3, 2-amino-5-ethyl-4-phosphonomethoxycarbonylthiazole] gave an inhibition in vivo at 10 mg/kg of 75%.

For the molecule `Cc1nc(-c2ccc(P3(=O)OCCC(c4ccncc4)O3)o2)c(CC(C)C)s1` (stereo not drawn) [Compound 19.17, 5-Isobutyl-2-methyl-4-{2-[5-(1-(4-pyridyl)-1,3-propyl)phosphono]furanyl}-thiazole], the “% Oral bioavailability” value in data set [1] is recorded as 16.2%.

Consider `CC(C)Cc1sc(N)nc1-c1ccc(P2(=O)OCCC(c3ccncc3)O2)o1` (stereo not drawn) [Compound 19.18, 2-Amino-5-isobutyl-4-[2-{5-[1-(4-pyridyl)-propan-1,3-yl]phosphonol}furanyl)-thiazole], for which, in data set [3], the IC50 is 10 µM.

As to `CC(C)Cc1sc(N)nc1-c1ccc(P2(=O)OCCC(c3ccc(F)c(Br)c3)O2)o1` (stereo not drawn) [Compound 19.42, 2-Amino-5-isobutyl-4-{2-[5-(1-(4-fluoro-3-bromophenyl)-1,3-propyl)phosphono]furanyl}thiazole], the “% Glucose Lowering (maximum)” value in the data set on Fasted Rat (dose 30 mg/kg, time point 3 h) is recorded as 26%. Further, in data set [1], the “% Oral bioavailability” value is given as 10%. Further, the “% excreted i.p.” value in data set [4] (30 mg/kg intraperitoneal, parent compound 3.1 in 24 h urine) is given as 15.4%. Further, the “% excreted p.o.” value in data set [4] (30 mg/kg oral gavage, parent compound 3.1 in 24 h urine) is listed as 8.1%. Further, the “% absorption” value in data set [4] (30 mg/kg, urinary excretion oral vs intraperitoneal) came to 52%.

For the molecule `CC(C)Cc1sc(N)nc1-c1ccc(P2(=O)OCCC(c3cccc(Cl)c3)O2)o1` (stereo not drawn) [Compound 19.46, 2-Amino-5-isobutyl-4-{2-[5-(1-(3-chlorophenyl)-1,3-propyl)phosphono]furanyl}thiazole], the “% Glucose Lowering (maximum)” value in the data set on Fasted Rat (dose 30 mg/kg, time point 2 h) turned out to be 53%.

For `Cc1nc(-c2ccc(P(=O)(OCOC(=O)C(C)(C)C)OCOC(=O)C(C)(C)C)o2)cs1` [Compound 20.1, 2-methyl-4-[2-(5-dipivaloyloxymethylphosphono)furanyl]-thiazole], in data set [1], the “% Oral bioavailability” value is 46%.

For `Cc1nc(-c2ccc(P(=O)(OCOC(=O)C(C)(C)C)OCOC(=O)C(C)(C)C)o2)c(CC(C)C)s1` [Compound 20.3, 2-Methyl-5-isobutyl-4-{2-[5-(dipivaloyloxymethyl)phosphono]furanyl}thiazole], the “% Oral bioavailability” value in data set [1] is on record as 17.5%.

With `CC(C)Cc1sc(N)nc1-c1ccc(P(=O)(OCOC(=O)C(C)(C)C)OCOC(=O)C(C)(C)C)o1` [Compound 20.4, 2-Amino-5-isobutyl-4-{2-[5-(dipivaloyloxymethyl)phosphono]furanyl}thiazole], the “% Oral bioavailability” value in data set [1] is given as 11%.

In the case of `CCOC(=O)OCOP(=O)(OCOC(=O)OCC)c1ccc(-c2nc(N)sc2CC(C)C)o1` [Compound 20.9, 2-Amino-5-isobutyl-4-{-2-[5-bis(ethoxycarbonyloxymethyl)phosphono]-furanyl}thiazole], the “% Glucose Lowering (maximum)” value in the data set with Fasted Rat (dose 90 mg/kg, time point 3 h) is given as 67%. Besides, the IC50 in data set [3] is 2.2 µM. Moreover, the “% Oral bioavailability” value in data set [1] was 17.4%.

For `COC(=O)C(C)NP(=O)(Oc1ccccc1)c1ccc(-c2nc(N)sc2CC(C)C)o1` (stereo not drawn) [Compound 31.6, 2-amino-5-isobutyl-4-{2-[5-(O-phenyl-N-(1-methoxycarbonyl)ethyl)phosphonamido]furanyl}thiazole], the “% Glucose Lowering (maximum)” value in the data set with Fasted Rat (dose 10 mg/kg, time point 3 h) worked out at 60%. Moreover, the IC50 in data set [3] was 2.3 µM. For the same molecule, the “% Oral bioavailability” value in data set [1] is 19%.

For the molecule `CCOC(=O)CNP(=O)(Oc1ccccc1)c1ccc(-c2nc(N)sc2CC(C)C)o1` (stereo not drawn) [Compound 31.8, 2-amino-5-isobutyl-4-{2-[5-(O-phenyl-N-ethoxycarbonylmethyl)phosphonamido]furanyl}thiazole], the IC50 in data set [3] was 3 µM. For the same molecule, in data set [1], the “% Oral bioavailability” value is on record as 14%.

For the molecule `Cc1ccc(OCP(=O)(O)O)c2nc(N)sc12` [Compound 35.3, 2-Amino-4-phosphonomethoxy-7-methylbenzothiazole], in the data set on Fasted Rats (setting [5]), the inhibition in vivo at 10 mg/kg amounted to 65%.

As for `CCc1c(SC#N)cc(OCP(=O)(O)O)c2nc(N)sc12` [Compound 41.1, 2-amino-7-ethyl-6-thiocyano-4-phosphonomethoxybenzothiazole], 10 mg/kg produced 80% inhibition in vivo with Fasted Rats (setting [5]).
